Measured values published in patent US20250134844A1, “THERAPEUTIC USE OF PLEUROMUTILINS” (Nabriva Therapeutics GmbH, priority 2022, published 2025).
≈ marks a conversion by molar mass, not a printed value. Where two headings read alike, the source gives them in different places.

Experiments:
Borreliella spp. = assay: MIC by broth microdilution against Borreliella isolates; format: cell-based; details: range over 6 isolates (5 B. burgdorferi, 1 B. garinii)
Description: Minimal inhibitory concentrations (MIC) were determined against five (n=5) Borreliella burgdorferi isolates (ATCC 51990, 55131, 35211, 35210, 53899) and one (n=1) Borreliella garinii isolate (ATCC 51991) by broth microdilution technique (Dever, L. L., Jorgensen, J. H., Barbour, A. G. In vitro antimicrobial susceptibility testing of Boreliella burgdorferi: a microdilution MIC method and time-kill studies. J Clin Microbiol. 30(10), 2692-2697. (1992) doi: 10.1128/jcm.30.10.2692-2697.1992; Feng, J., Wang, T., Shi, W., et al. Identification of novel activity against Boreliella burgdorferi persisters using an FDA approved drug library. Emerg Microb Infect 3, e49 (2014) doi: 10.1038/emi.2014.53). The general procedures for broth microdilution were done according to the CLSI guidelines M7 and M100-S31 (CLSI. (2018) Methods for dilution antimicrobial susceptibility tests for bacteria that grow aerobically; Eleventh edition. M07.; CLSI. (2021) Performance Standards for Antimicrobial Susceptibility Testing; Thirty-first Edition. M100-S31).
Briefly, Borreliella spp. were grown at 36° C. under microaerophilic conditions in BSK II medium until the logarithmic or stationary growth phase was reached. The growth phase was determined by semiquantitative measurement of active and dormant cells by fluorescence microscopy of cells stained with the fluorescent dyes SYBR Green I and propidium iodide. An inoculum of 10^5−10^6 spirochetes/mL was used to inoculate broth microdilution plates containing serially 2-fold diluted test compounds.

[1] = tested on: T. pallidum cells (Chicago strain); assay: Rabbit model of intradermal Treponema pallidum infection (syphilis); format: in vivo
Description: The preclinical study to test Lefamulin against T. pallidum was conducted in analogy to an investigation of the antibiotic compound linezolid (Haynes, A. M., Giacani, L., Vall Mayans, M., et al. Efficacy of linezolid on Treponema pallidum, the syphilis agent: A preclinical study. eBioMedicine 65, 103281 (2021). doi: 10.1016/j.ebiom.2021.103281).
In the syphilis infection model, each animal was infected intradermally (ID) with 10^6 freshly harvested, viable and infectious T. pallidum cells (Chicago strain) per site of infection on 10 sites on their shaved backs to induce appearance of primary syphilis lesions. Treponemal viability prior to ID infection was assessed by dark field microscopy (DFM). A dose of infectious treponemes (10^6/site of infection) induces the appearance of an erythematous lesion at the inoculation site within ˜5 days post-inoculation. Overall, the arch of lesion progression from the erythematous stage to the indurated, ulcerated, and healed stages encompasses approximately 4 weeks.
Herein, three groups of three rabbits were infected. Three animals were treated orally with 70 mg/kg Lefamulin every 12 h for 3 days (day 7 to day 10 post-infection). As positive control group, another three animals were treated with Benzathine penicillin G (BPG) as single intramuscular (IM) injection (300,000 units; equivalent w/w to 4.8 million units for humans). One group (n=3) served as untreated control. The cutaneous lesions were monitored macroscopically for clinical development, documented by photography on regular basis and measured for their diameter every day for a period of 40 days.
Treponemal burden within these lesions was assessed by taking needle aspirates from the lesions and analyzing the aspirates for pathogen cell count using DFM as well as quantification of treponemal DNA extracted from the aspirates at day 3, 8, 12, and 16 Additionally, mRNA extracted from lesion biopsies obtained post-treatment initiation was also quantified as a surrogate of viability. The gene copy number of the T. pallidum tp0574 gene was quantified by qPCR. Additionally, the tp0574 gene message was normalized to the message of the rabbit housekeeping gene HPRT to evaluate the burden of viable T. pallidum cells within lesion biopsies.

T. pallidum = assay: Rabbit infectivity test (RIT) with popliteal lymph nodes; format: in vivo
From the text: The test rabbits from Example 3 were used for a subsequent study in a RIT, wherein samples from the popliteal lymph nodes were transferred to new (naïve) rabbits, which were subsequently analyzed for disease symptoms and tested serologically (Haynes, A. M., Giacani, L., Vall Mayans, M., et al. Efficacy of linezolid on Treponema pallidum, the syphilis agent: A preclinical study. eBioMedicine 65, 103281 (2021). Doi: 10.1016/j.ebiom.2021.103281).
Following euthanasia, popliteal lymph nodes (LN) from all the rabbits in the Lefamulin, BPG, and control groups were harvested. Lymph nodes from each rabbit were pooled and homogenized in a solution containing equal amounts of sterile saline and serum from an uninfected rabbit. One milliliter of homogenate from each test rabbit was then inoculated into the left testicle of a naïve rabbit to perform the RIT. For the rabbit, which died at day 3 post-treatment initiation, lymph nodes were harvested and transferred to a RIT rabbit within 1 hour after the animal's death.
Inoculated animals were checked for orchitis twice weekly. Serum was collected monthly for three months and analyzed with two different serological tests, i.e. VDRL (Venereal Disease Research Laboratory; Becton-Dickinson, Franklin Lanes, NJ) and TPPA (Treponema pallidum Particle Agglutination; Fujirebio, Malvern, PA). Also an FTA-ABS test (Fluorescent Treponemal Antibody-Absorption; Trinity Biotech, Jamestown, NY) was performed.

[2] = 192 h, stationary growth phase cultures, read after 8 days, read-out: MIC (μg/mL) for Stationary Growth Phase Culture (n = 6)
[3] = logarithmic growth phase cultures, read after 5 or 6 days, read-out: MIC (μg/mL) for Logarithmic Growth Phase Culture (n = 6)

MIC (Borreliella spp.; [2]) [µg/mL] | MIC (Borreliella spp.; [3]) [µg/mL] | Compound | further results
0.001 to 0.004 (≈ 0.00134 to 0.00534 µM) | 0.001 to 0.004 (≈ 0.00134 to 0.00534 µM) | CC[C@H]1OC(=O)[C@H](C)[C@@H](O[C@H]2C[C@@](C)(OC)[C@@H](O)[C@H](C)O2)[C@H](C)[C@@H](O[C@@H]2O[C@H](C)C[C@H](N(C)C)[C@H]2O)[C@](C)(O)C[C@@H](C)CN(C)[C@H](C)[C@@H](O)[C@]1(C)O [Azithromycin] | 
0.12 to 2 (≈ 0.317 to 5.28 µM) | 0.12 to 1 (≈ 0.317 to 2.64 µM) | C=C[C@]1(C)C[C@@H](OC(=O)CO)[C@]2(C)[C@H](C)CC[C@]3(CCC(=O)[C@H]32)[C@@H](C)[C@@H]1O [Pleuromutilin] | 

More lines, now with the values behind:

Compound | MIC (Borreliella spp.; [2]) [µg/mL] | MIC (Borreliella spp.; [3]) [µg/mL] | further results
C[C@H]1c2cccc(O)c2C(=O)C2=C(O)[C@]3(O)C(=O)C(C(N)=O)=C(O)[C@@H](N(C)C)[C@@H]3[C@@H](O)[C@@H]21 [Doxycycline] | 0.03 to 0.5 (≈ 0.0675 to 1.13 µM) | 0.03 to 0.5 (≈ 0.0675 to 1.13 µM) | 
CC1(C)S[C@@H]2[C@H](NC(=O)Cc3ccccc3)C(=O)N2[C@H]1C(=O)O.CC1(C)S[C@@H]2[C@H](NC(=O)Cc3ccccc3)C(=O)N2[C@H]1C(=O)O.c1ccc(CNCCNCc2ccccc2)cc1 [BPG, Benzathine penicillin G] |  |  | lesion progression past the initial state of mild induration ([1]; 40 days observation): None of the lesions in these two groups progressed past the initial state of mild induration; T. pallidum mRNA (tp0574 message normalized to HPRT) in lesion biopsies ([1]; day 3 post-treatment initiation): absent; measured sites resolved ([1]; day 9 post-BPG administration): 95%; measured sites resolved ([1]; day 12 post-treatment): 100%; T. pallidum cells in lesion aspirates by DFM ([1]; since day 3 post-treatment initiation): no treponemal bacteria could be found; orchitis or seroconversion (VDRL, TPPA) of RIT rabbits (T. pallidum; 3-months observation period, lymph nodes from treated test rabbits): None of the animals developed orchitis or seroconverted; seroconversion in FTA-ABS test (T. pallidum; RIT rabbits, control animals 3+ reactivity or higher): none of the BGP or Lefamulin treated animals seroconverted
CO/N=C(\C(=O)N[C@@H]1C(=O)N2C(C(=O)O)=C(COC(N)=O)CS[C@H]12)c1ccco1 [Cefuroxime] | 0.016 to 0.25 (≈ 0.0377 to 0.589 µM) | 0.016 to 0.25 (≈ 0.0377 to 0.589 µM) | 
C[C@H]1COc2c(N3CCN(C)CC3)c(F)cc3c(=O)c(C(=O)O)cn1c23 [Levofloxacin] | 2 to 8 (≈ 5.53 to 22.1 µM) | 2 to 4 (≈ 5.53 to 11.1 µM) | 
